The source made the active and inactive calls.
Key:
[1] = molecular target: Sphingosine 1-phosphate receptor 2 (Homo sapiens, UniProt O95136); assay: Dose Response Cell Based Assay for Antagonists of the S1P2 Receptor. [Related pubchem assays: 856, 736 ]; type: functional
Caspase-6 = Caspase-6 (Homo sapiens, UniProt P55212); assay: human caspase-6 inhibitors, dose response, biochemical, VEID-R110 fluorescence, cherry-pick (AID 720632)
[2] = Luminescence-based cell-based high throughput dose response assay to identify activators of the DAF-12 from the parasite S. stercoralis (ssDAF-12).; type: functional
[3] = molecular target: T1, Oxysterols receptor LXR-beta (Homo sapiens, UniProt P55055); assay: LXR agonists, Gal4 luciferase reporter, dose response, counter-screen for ssDAF-12 agonist project, cell-based, luminescence, HEK293, S. stercoralis campaign (AID 720737); type: functional; settings: read-out: IC50 (the source's name)
T1 sequence (P55055 whole entry): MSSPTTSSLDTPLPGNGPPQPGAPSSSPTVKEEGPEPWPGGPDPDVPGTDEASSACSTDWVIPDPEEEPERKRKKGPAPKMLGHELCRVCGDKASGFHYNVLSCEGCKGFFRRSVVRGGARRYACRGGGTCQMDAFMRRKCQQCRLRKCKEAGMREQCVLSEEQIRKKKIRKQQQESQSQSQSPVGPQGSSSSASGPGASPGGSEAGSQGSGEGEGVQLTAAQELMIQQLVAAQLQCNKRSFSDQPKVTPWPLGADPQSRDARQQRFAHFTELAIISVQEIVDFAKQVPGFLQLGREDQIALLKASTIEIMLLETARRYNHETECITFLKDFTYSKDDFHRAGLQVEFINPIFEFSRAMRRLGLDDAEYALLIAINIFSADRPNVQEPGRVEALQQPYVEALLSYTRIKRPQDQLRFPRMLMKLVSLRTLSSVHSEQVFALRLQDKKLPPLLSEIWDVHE

[4] = LGR2 antagonists, dose response, cell-based, HEK293, CRE-luciferase reporter, cherry pick, set 2 (AID 743343); type: functional;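 further: transfected cells were stimulated with diluted bursicon conditioned medium after compound addition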
[5] = MC4R antagonists, dose response, counter-screen for LGR2 antagonist project, cell-based, plate reader, cherry pick (AID 743444); type: functional;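 further: transfected HEK 293 cells stimulated with alpha-MSH peptide; potency of inhibitors of the alpha-MSH evoked signal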
[6] = HEK293 cell cytotoxicity, dose response, cytotoxicity control, plate reader, cherry-picked samples (AID 743446); type: functional, cell-based
[7] = molecular target: T2, Adenosylmethionine-8-amino-7-oxononanoate aminotransferase (Mycobacterium tuberculosis, UniProt P9WQ81); assay: Mycobacterium tuberculosis BioA enzyme inhibitor Measured in Biochemical System Using Plate Reader - 2163-02_Inhibitor_Dose_CherryPick_Activity.; type: functional, Mycobacterium tuberculosis UT205
T2 sequence (P9WQ81 whole entry): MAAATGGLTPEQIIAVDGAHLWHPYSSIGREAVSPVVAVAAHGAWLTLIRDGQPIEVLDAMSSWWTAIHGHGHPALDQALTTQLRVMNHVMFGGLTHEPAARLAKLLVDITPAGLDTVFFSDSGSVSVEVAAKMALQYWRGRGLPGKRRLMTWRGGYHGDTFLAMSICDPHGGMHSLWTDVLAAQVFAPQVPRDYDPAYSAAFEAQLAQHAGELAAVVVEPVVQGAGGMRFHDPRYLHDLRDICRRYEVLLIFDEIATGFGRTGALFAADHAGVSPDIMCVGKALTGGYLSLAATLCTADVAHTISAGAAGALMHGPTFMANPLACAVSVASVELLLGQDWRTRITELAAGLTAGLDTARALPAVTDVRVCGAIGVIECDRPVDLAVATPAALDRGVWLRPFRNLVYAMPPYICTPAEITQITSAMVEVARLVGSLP

[8] = cytotoxicity in OVCAR8 ovarian cancer cells, dose response, PAX8 project, cell-based, plate reader, dry powder samples (AID 743197); type: functional; settings: OVCAR-8
Paired box protein Pax-8 = Paired box protein Pax-8 (Homo sapiens, UniProt Q06710); assay: inhibitors of PAX8-driven TPO luciferase reporter, dose response, RMG-I cells, cherry-pick (AID 687027); type: functional, cell-based;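 further: luciferase reporter driven by Pax8 target thyroperoxidase promoter measured by SteadyGlo luminescence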
Sequence of Paired box protein Pax-8 (Q06710 whole entry): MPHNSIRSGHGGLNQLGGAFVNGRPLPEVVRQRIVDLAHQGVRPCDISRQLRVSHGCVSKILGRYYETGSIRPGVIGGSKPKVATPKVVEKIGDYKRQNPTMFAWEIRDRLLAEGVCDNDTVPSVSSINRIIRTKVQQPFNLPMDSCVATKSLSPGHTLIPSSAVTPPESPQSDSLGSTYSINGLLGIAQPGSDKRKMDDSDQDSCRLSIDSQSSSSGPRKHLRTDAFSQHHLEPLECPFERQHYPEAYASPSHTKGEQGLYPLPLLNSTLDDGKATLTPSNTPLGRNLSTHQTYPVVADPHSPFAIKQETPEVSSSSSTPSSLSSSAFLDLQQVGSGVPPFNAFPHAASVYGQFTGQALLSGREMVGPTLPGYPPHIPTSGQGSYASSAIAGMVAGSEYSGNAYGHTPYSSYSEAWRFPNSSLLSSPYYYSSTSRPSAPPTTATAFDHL

[9] = IGROV1 ovarian cancer cell cytotoxicity, dose response, PAX8 inhibitor project, plate reader, dry powder samples (AID 743043); type: functional, cell-based; settings: IGROV-1
[10] = NIH:OVCAR-3 ovarian cancer cell cytotoxicity, dose response, PAX8 inhibitor project, plate reader, dry powder samples (AID 743044); type: functional, cell-based
[11] = HeLa 2N DNA content increase, dose response, cell-based, IC50 (AID 1117349); type: functional
[12] = HeLa 4N DNA content increase, dose response, cell-based, IC50 (AID 1117351); type: functional
[13] = P. falciparum Dd2 growth inhibitors, dose response, SYBR Green, dry powder samples (AID 1159566); type: functional, cell-based;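 further: potency for growth inhibition with lower SYBR green DNA signal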
[14] = P. falciparum Dd2 growth inhibitors, dose response, SYBR Green, cherry-picked samples (AID 1159567); type: functional, cell-based
[15] = P. falciparum ATP4 D1247Y mutant growth inhibitors, dose response, NITD609-resistant line, SYBR Green, dry powder (AID 1159571); type: functional, cell-based;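 further: parasites synchronized at ring stage by sorbitol before testing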
[16] = HepG2 cell cytotoxicity, dose response, cytotoxicity control, cherry-picked samples (AID 1159577); type: functional, cell-based
[17] = P. falciparum 3D7-ScDHODH growth inhibitors, dose response, SYBR Green, dry powder samples (AID 1159570); type: functional, cell-based;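 further: parasite growth measured after 72 hours of compound exposure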
[18] = HepG2 cell cytotoxicity, dose response, cytotoxicity control, plate reader, dry powder samples (AID 1159569); type: functional, cell-based;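 further: inhibitor potency with signal falling toward the positive control level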
[19] = cytotoxicity toward HT-29 cells – cell-based, CellTiter-Glo luminescence, IC50, dose response (AID 1117330); type: functional
[20] = Concentration-dependent survival of SW480 colon cancer line, luminescence detection with CellTiter-Glo, half-maximal inhibitory concentration (AID 1117338); type: functional
[21] = RKO cell viability reduction, dose response, CellTiter-Glo luminescence (AID 1117322); type: functional
[22] = CellTiter-Glo luminescent dose response of DLD-1 viability loss (AID 1117352); type: functional
[23] = cytotoxicity toward HCT116 cells – cell-based, CellTiter-Glo luminescence, IC50, dose response (AID 1117332); type: functional; settings: HCT-116
[24] = HCT116 cell viability decrease, GSK3B pretreatment – CellTiter-Glo, IC50, dose response (AID 1117339); type: functional; settings: HCT-116
[25] = SNU-C1 cell viability reduction, dose response, CellTiter-Glo luminescence (AID 1117323); type: functional, cell-based
[26] = cytotoxicity toward Colo320 cells – cell-based, CellTiter-Glo luminescence, IC50, dose response (AID 1117334); type: functional; settings: COLO 320
SN12K1 = assay: cells; type: functional; settings: Homo sapiens
P388 = assay: cells; type: functional; settings: Mus musculus
P388/ADR = assay: cells; type: functional; settings: Mus musculus

Sequence of Caspase-6 (P55212 24-179 limits assumed): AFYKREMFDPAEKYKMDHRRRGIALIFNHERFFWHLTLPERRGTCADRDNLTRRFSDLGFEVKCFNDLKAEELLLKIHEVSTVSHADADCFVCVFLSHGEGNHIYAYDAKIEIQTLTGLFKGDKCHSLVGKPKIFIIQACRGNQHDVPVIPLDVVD
Sequence of Caspase-6 (P55212 194-293 limits assumed): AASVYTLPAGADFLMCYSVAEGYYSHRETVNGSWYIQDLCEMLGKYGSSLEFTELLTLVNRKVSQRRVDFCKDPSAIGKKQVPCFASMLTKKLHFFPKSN
Sequence of Sphingosine 1-phosphate receptor 2 (O95136 whole entry): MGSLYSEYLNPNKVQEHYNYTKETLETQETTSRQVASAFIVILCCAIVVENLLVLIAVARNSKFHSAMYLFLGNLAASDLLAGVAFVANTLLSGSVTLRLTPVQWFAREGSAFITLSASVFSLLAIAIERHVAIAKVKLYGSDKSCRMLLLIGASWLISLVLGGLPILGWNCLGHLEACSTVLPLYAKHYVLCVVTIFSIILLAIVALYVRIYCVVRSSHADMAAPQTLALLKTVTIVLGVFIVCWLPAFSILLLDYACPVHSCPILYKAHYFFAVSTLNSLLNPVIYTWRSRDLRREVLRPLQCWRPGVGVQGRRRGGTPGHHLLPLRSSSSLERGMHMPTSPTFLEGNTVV

O=C(c1sc2cc(C(F)(F)F)cnc2c1-c1ccccc1)N1CCOCC1
IC50 [1]: > 30 µM (not active)

O=Cc1ccc(Oc2nc(Cl)ncc2F)cc1
AC50 (Caspase-6): 9.13 µM (active)

O=C(Cc1c[nH]c2ccccc12)NNCc1ccc(N(CCCl)CCCl)cc1
IC50 [2]: > 67.5 µM (inactive)
EC50 [3]: > 67.5 µM (inactive)

CC(C)N(C)c1ncnc2c1ncn2[C@H]1CN(Cc2cccnc2)C[C@@H](CO)O1
IC50 [2]: > 67.5 µM (inactive)
EC50 [3]: > 67.5 µM (inactive)

FC(F)(F)c1cccc(CC2CN(Cc3ccccc3)Cc3ccccc3N2c2cc(Cl)cc(Cl)c2)c1 (centres undefined)
AC50 [4]: 22.2 µM (active)
AC50 [5]: 12.5 µM (active)
AC50 [6]: > 52 µM (inactive)

COc1ccc(-c2ccc3c(c2)[C@H]2[C@H](CCN2C(=O)Cc2cccnc2)[C@H](CO)N3C)cc1
AC50 [7]: 1.57 µM (active)
AC50 [8]: > 70 µM (inactive)

C[C@@H]1CCCCO[C@H](CN(C)Cc2ccc(C(F)(F)F)cc2)[C@@H](C)CN([C@@H](C)CO)C(=O)c2cc(NC(=O)Cc3ccccc3)ccc2O1
AC50 (Paired box protein Pax-8): 9.25 µM (active)
AC50 [9]: 64.6 µM (active)
AC50 [10]: 35.2 µM (active)

CCCCCCCCCCOCC(O)CN (centres undefined)
IC50 [11]: > 10 µM (inactive)
IC50 [12]: > 10 µM (inactive)

COc1ccccc1NC(=O)N1CCCCN2[C@H](CO)[C@H](c3ccc(C#CC4CC4)cc3)[C@H]2C1
AC50 [13]: 1.2 µM (active)
AC50 [14]: 2.69 µM (active)
AC50 [15]: 1.74 µM (active)
AC50 [16]: 20.3 µM (active)
AC50 [17]: 1.74 µM (active)
AC50 [18]: 18.4 µM (active)

C/C=C/c1ccc([C@H]2[C@@H](CO)N(c3nc(C)c(C)s3)[C@@H]2CNCC(C)C)cc1
AC50 [13]: 0.227 µM (active)
AC50 [14]: 0.861 µM (active)
AC50 [15]: 0.473 µM (active)
AC50 [16]: > 39 µM (inactive)
AC50 [17]: 0.915 µM (active)
AC50 [18]: 44.1 µM (active)

Cc1cccc(C)c1NC(=O)CC12CCCN1CCC2 [PILSICAINIDE]
IC50 [19]: > 20 µM (inactive)
IC50 [20]: > 20 µM (inactive)
IC50 [21]: > 20 µM (inactive)
IC50 [22]: > 20 µM (inactive)
IC50 [23]: > 20 µM (inactive)
IC50 [24]: > 20 µM (inactive)
IC50 [25]: > 20 µM (inactive)
IC50 [26]: > 20 µM (inactive)

OC[C@H]1O[C@@H](n2cnc3c(S)ncnc32)[C@H](O)[C@@H]1O [THIOINOSINE]
IC50 [19]: 0.118 µM (active)
IC50 [20]: 0.0287 µM (active)
IC50 [21]: 0.0144 µM (active)
IC50 [11]: > 10 µM (inactive)
IC50 [22]: 0.063 µM (active)
GI50 (SN12K1): 1780 µM (inactive)
IC50 [23]: 0.0286 µM (active)
IC50 [24]: 0.504 µM (active)
GI50 (P388): 1240 µM (inactive)
IC50 [25]: 2.19 µM (active)
IC50 [26]: 1.06 µM (active)
IC50 [12]: > 10 µM (inactive)
GI50 (P388/ADR): 1140 µM (inactive)

Reference: ChEMBL document CHEMBL1201862, “PubChem BioAssay data set” (2004)
